Numbers after ± are expanded uncertainties.
Conditions: Liquid; for mass density: 298.15 K, 101.33 kPa, Vibrating tube method; for vapor or sublimation pressure: Closed cell (Static) method

For CC(C)(C)O [2-methylpropan-2-ol], the mass density was 781.04 ± 0.18 kg/m3, the “vapor or sublimation pressure” value (330.9 K) was 34.9 ± 0.4 kPa and the “vapor or sublimation pressure” value (331.1 K) was 35.3 ± 0.4 kPa. The “vapor or sublimation pressure” value (340.6 K) was 54 ± 0.5 kPa, the “vapor or sublimation pressure” value (350.6 K) was 82.6 ± 0.7 kPa and the “vapor or sublimation pressure” value (360.1 K) was 121.2 ± 1 kPa. The “vapor or sublimation pressure” value (369.5 K) was 171.4 ± 1.3 kPa, the “vapor or sublimation pressure” value (378.5 K) was 232.1 ± 1.6 kPa and the “vapor or sublimation pressure” value (387.7 K) was 310.6 ± 2.1 kPa. The “vapor or sublimation pressure” value (396.7 K) was 406.4 ± 2.4 kPa.

In the case of CCC(C)O (configuration not stated) [butan-2-ol], the mass density is reported as 802.47 ± 0.16 kg/m3, the “vapor or sublimation pressure” value (332.9 K) is reported as 18 ± 0.2 kPa and the “vapor or sublimation pressure” value (342.9 K) is reported as 29.2 ± 0.3 kPa. For the same compound, the “vapor or sublimation pressure” value (352.5 K) was 45 ± 0.4 kPa, the “vapor or sublimation pressure” value (361.3 K) was 65 ± 0.6 kPa and the “vapor or sublimation pressure” value (371.1 K) was 96 ± 0.8 kPa. The “vapor or sublimation pressure” value (381.1 K) was 137.6 ± 1 kPa, the “vapor or sublimation pressure” value (391.9 K) was 197.5 ± 1.4 kPa and the “vapor or sublimation pressure” value (401.4 K) was 266.1 ± 1.8 kPa. The “vapor or sublimation pressure” value (412 K) was 361.8 ± 2.2 kPa and the “vapor or sublimation pressure” value (421.6 K) was 471.4 ± 2.6 kPa.

For CCCCCO [pentan-1-ol], the mass density was 811.04 ± 0.15 kg/m3, the “vapor or sublimation pressure” value (333.1 K) was 3.1 ± 0.1 kPa and the “vapor or sublimation pressure” value (344.8 K) was 6 ± 0.1 kPa. For the same compound, the “vapor or sublimation pressure” value (354.4 K) was 10 ± 0.1 kPa, the “vapor or sublimation pressure” value (362.4 K) was 14.8 ± 0.2 kPa and the “vapor or sublimation pressure” value (371.2 K) was 21.9 ± 0.2 kPa. The “vapor or sublimation pressure” value (381.6 K) was 34.1 ± 0.3 kPa, the “vapor or sublimation pressure” value (391.5 K) was 50.2 ± 0.4 kPa and the “vapor or sublimation pressure” value (401.7 K) was 73.1 ± 0.6 kPa. The “vapor or sublimation pressure” value (411.4 K) was 102.1 ± 0.7 kPa and the “vapor or sublimation pressure” value (422.4 K) was 145.2 ± 0.9 kPa.

From the NIST ThermoML archive (doi:10.1016/j.fluid.2013.09.029)
